The test system of one assay is CCRF-CEM. The experiment in a line: Cytotoxicity against human CCRF-CEM cells assessed as reduction in cell viability after 72 hrs by resazurin reduction assay. It counts as functional, cell-based. On the technique in general: Resazurin is reduced to fluorescent resorufin, in cell work by metabolically active cells.
Assay [1] has as its system ADR5000 cell line. Put plainly: Cytotoxicity against human CEM/ADR5000 cells assessed as reduction in cell viability after 72 hrs by resazurin reduction assay. The class given is functional, cell-based. Conditions: ADR5000, 72 h.
The nature of assay [2]: Resistance index, ratio of IC50 for human CEM/ADR5000 cells to IC50 for human CCRF-CEM cells. The class given is functional.
In assay [3] the test system is ADR5000 cell line. The experiment in a line: Cytotoxicity against human CEM/ADR5000 cells assessed as reduction in cell viability at 400 uM after 72 hrs by resazurin reduction assay. The class given is functional, cell-based.

The source made the active and inactive calls. The calls are words filed in the database; no cut-off is given here.

A word on the IC50: it is the concentration that gives 50% inhibition. Turning to `COC(=O)CC[C@@H](C)[C@H]1CC[C@H]2[C@@H]3[C@H](OC(C)=O)C[C@@H]4C[C@@H](NC(=O)C[C@H]5O[C@@H]6O[C@@]7(C)CC[C@H]8[C@H](C)CC[C@@H]([C@H]5C)[C@@]68OO7)CC[C@]4(C)[C@H]3C[C@H](OC(C)=O)[C@]12C`, the IC50 was found to be 49 nM in the assay with CCRF-CEM and 560 nM in the assay on ADR5000 cell line [1]. Also, the “Ratio IC50” value in assay [2] is listed as 11.4.
`CC(=O)O[C@H]1C[C@H]2[C@@H]([C@H](OC(C)=O)C[C@@H]3CC(=O)CC[C@@]32C)[C@@H]2CC[C@H]([C@H](C)CCC(=O)OCCC[C@H]3O[C@@H]4O[C@@]5(C)CC[C@H]6[C@H](C)CC[C@@H]([C@H]3C)[C@@]46OO5)[C@@]12C`: the IC50 in the assay on CCRF-CEM amounted to 192 nM; in the assay with ADR5000 cell line [1], 7160 nM. For the same compound, the “Ratio IC50” value in assay [2] stood at 37.3.
For `COC(=O)CC[C@@H](C)[C@H]1CC[C@H]2[C@@H]3[C@H](OC(C)=O)C[C@@H]4C[C@@H](OC(=O)CCC(=O)O[C@@H]5O[C@@H]6O[C@@]7(C)CC[C@H]8[C@H](C)CC[C@@H]([C@H]5C)[C@@]68OO7)CC[C@]4(C)[C@H]3C[C@H](OC(C)=O)[C@]12C`, in that order: 65 nM, 1180 nM and 18.1.
As for `COC(=O)CC[C@@H](C)[C@H]1CC[C@H]2[C@@H]3[C@H](OC(C)=O)C[C@@H]4C[C@H](NC(=O)C[C@H]5O[C@@H]6O[C@@]7(C)CC[C@H]8[C@H](C)CC[C@@H]([C@H]5C)[C@@]68OO7)CC[C@]4(C)[C@H]3C[C@H](OC(C)=O)[C@]12C`, the IC50 came to 19 nM in the assay with CCRF-CEM and 345 nM with ADR5000 cell line [1]. For the same compound, the “Ratio IC50” value in assay [2] worked out at 18.2.
As for `C[C@H]1[C@@H](CCCO)O[C@@H]2O[C@@]3(C)CC[C@H]4[C@H](C)CC[C@@H]1[C@@]24OO3`, the outcome with ADR5000 cell line [3] was inactive.
`COC(=O)CC[C@@H](C)[C@H]1CC[C@H]2[C@@H]3[C@H](OC(C)=O)C[C@@H]4C[C@@H](NC(=O)CCC(=O)O[C@@H]5O[C@@H]6O[C@@]7(C)CC[C@H]8[C@H](C)CC[C@@H]([C@H]5C)[C@@]68OO7)CC[C@]4(C)[C@H]3C[C@H](OC(C)=O)[C@]12C`: the IC50 in the assay with CCRF-CEM worked out at 136 nM; in the assay with ADR5000 cell line [1] it was 779 nM. In addition, the “Ratio IC50” value in assay [2] is recorded as 5.7.
Turning to `COC(=O)CC[C@@H](C)[C@H]1CC[C@H]2[C@@H]3[C@H](OC(C)=O)C[C@@H]4C[C@H](OC(=O)CCC(=O)O[C@@H]5O[C@@H]6O[C@@]7(C)CC[C@H]8[C@H](C)CC[C@@H]([C@H]5C)[C@@]68OO7)CC[C@]4(C)[C@H]3C[C@H](OC(C)=O)[C@]12C`, the IC50 was determined as 35 nM in the assay on CCRF-CEM and 626 nM in the assay with ADR5000 cell line [1]. The “Ratio IC50” value in assay [2] came to 17.9.
`COC(=O)CC[C@@H](C)[C@H]1CC[C@H]2[C@@H]3[C@H](OC(C)=O)C[C@@H]4C[C@H](OC(=O)C[C@H]5O[C@@H]6O[C@@]7(C)CC[C@H]8[C@H](C)CC[C@@H]([C@H]5C)[C@@]68OO7)CC[C@]4(C)[C@H]3C[C@H](OC(C)=O)[C@]12C`: the IC50 turned out to be 30 nM in the assay with CCRF-CEM and 1250 nM with ADR5000 cell line [1]. Moreover, the “Ratio IC50” value in assay [2] turned out to be 41.8.
`COc1cccc2c1C(=O)c1c(O)c3c(c(O)c1C2=O)C[C@@](O)(C(=O)CO)C[C@@H]3O[C@H]1C[C@H](N)[C@H](O)[C@H](C)O1` [DOXORUBICIN]: the “Ratio IC50” value in assay [2] was 536.67.
In the case of `COC(=O)CC[C@@H](C)[C@H]1CC[C@H]2[C@@H]3[C@H](OC(C)=O)C[C@@H]4C[C@H](NC(=O)CCC(=O)O[C@@H]5O[C@@H]6O[C@@]7(C)CC[C@H]8[C@H](C)CC[C@@H]([C@H]5C)[C@@]68OO7)CC[C@]4(C)[C@H]3C[C@H](OC(C)=O)[C@]12C`, the IC50 with CCRF-CEM came out at 36 nM; in the assay on ADR5000 cell line [1], 655 nM. Besides, the “Ratio IC50” value in assay [2] is 18.2.
Turning to `COC(=O)CC[C@@H](C)[C@H]1CC[C@H]2[C@@H]3[C@H](OC(C)=O)C[C@@H]4C[C@@H](OC(=O)C[C@H]5O[C@@H]6O[C@@]7(C)CC[C@H]8[C@H](C)CC[C@@H]([C@H]5C)[C@@]68OO7)CC[C@]4(C)[C@H]3C[C@H](OC(C)=O)[C@]12C`, the IC50 came to 28 nM in the assay on CCRF-CEM and 1290 nM in the assay with ADR5000 cell line [1]. For the same compound, the “Ratio IC50” value in assay [2] worked out at 46.1.

For the origin of these results see ChEMBL document CHEMBL4020737, “Synthesis and cytotoxic activity of new artemisinin hybrid molecules against human leukemia cells” (Bioorg Med Chem, 2017).
